# Values of other authors in patent US20070243268A1, “Compositions for regulating intestinal disorders and methods of use thereof” (priority 2005, published 2007).
# Test system: prostate cancer
# Details: 970 men, 200 mcg selenium daily (as selenium-enriched yeast) for 4.5 years
structure (smiles),measurement,value
[Se] [selenium],reduction in the incidence of prostate cancer,63%
